One test has as its target T1, hClpP (Homo sapiens, UniProt Q16740).
T1 construct: made in house
Briefly: activating ClpP hydrolysis of FITC-casein (fluorescence kinetic detection). In kind it is biochemical. As to conditions: hClpP 1 μM, FITC-Casein 4 μM, 37° C. An outline of the steps:
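hClpP at 1 μM final preincubated with compounds (assay-buffer dilutions 200 μM–2 nM, before mixing) 30 min at 37 °C, then 4 μM final FITC-casein added. Fluorescence read kinetically at 37 °C every 1 min for 15 min, duplicate wells.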

Another test concerns MV4; 11 cells. Briefly: inhibiting the growth of MV4; 11 cells. In kind it is cell-based. As to conditions: Homo sapiens.

pEC50, pIC50: −log10 of the molar value.

As usually defined, the pEC50 is −log10 of the EC50, conventionally taken in molar units. A lower pEC50 goes with a large EC50. For orientation: pIC50 means the IC50 on a negative log10 scale, so that one unit is a factor of ten. A higher pIC50 goes with a low IC50.

T1 sequence (Q16740 57-277): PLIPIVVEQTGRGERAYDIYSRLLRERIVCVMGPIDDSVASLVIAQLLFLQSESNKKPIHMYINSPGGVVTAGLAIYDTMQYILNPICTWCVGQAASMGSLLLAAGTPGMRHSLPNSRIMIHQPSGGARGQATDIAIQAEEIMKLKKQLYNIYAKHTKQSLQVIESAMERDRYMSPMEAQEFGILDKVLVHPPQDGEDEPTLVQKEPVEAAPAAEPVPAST

In turn, `O=c1c2c(c3cccnc3n1Cc1ccccc1)CCN(Cc1ccccc1Cl)C2` [Compound I-7, 6-benzyl-3-(2-chlorobenzyl)-2,3,4,6-tetrahydropyrido[3,4-c][1,8]naphthyridine-5-(1H)-one] gave a negative-log EC50 (pEC50) on hClpP of 5.00 to 6.00. In the test with MV4; 11 cells, the pIC50 is > 6.00.

Turning to `O=c1c2c(c3cccnc3n1Cc1ccccc1)CCN(Cc1cccc(Br)c1)C2` [Compound I-14, 6-benzyl-3-(3-bromobenzyl)-2,3,4,6-tetrahydropyrido[3,4-c][1,8]naphthyridine-5-(1H)-one], the pEC50 at hClpP was > 6.00. In addition, the pIC50 in the test with MV4; 11 cells was > 6.00.

Regarding `O=c1c2c(n3ncnc3n1Cc1ccc(Cl)cc1)CCN(Cc1ccccc1)C2` [Compound I-152, 4-(4-chlorobenzyl)-7-benzyl-6,7,8,9-tetrahydropyrido[3,4-e][1,2,4]triazolo[1,5-a]pyrimidine-5(4H)-one], the negative-log EC50 (pEC50) at hClpP is 5.00 to 6.00. The molecule further gave a negative logarithm of the IC50 (pIC50) with MV4; 11 cells of 5.00 to 6.00.

For `O=c1c2c(n3ccnc3n1Cc1ccc(F)cc1)CCN(Cc1cccc(F)c1)C2` [Compound I-113, 7-(3-fluorobenzyl)-4-(4-fluorobenzyl)-6,7,8,9-tetrahydroimidazo[1,2-a]pyrido[3,4-e]pyrimidine-5(4H)-one], the pEC50 at hClpP is > 6.00. The pIC50 in the test with MV4; 11 cells is > 6.00.

In the case of `COc1ccc(Cn2c(=O)c3c(n4ccnc24)CCN(Cc2cccc(C#N)c2)C3)cc1` [Compound I-146, 7-(3-cyanobenzyl)-4-(4-methoxybenzyl)-6,7,8,9-tetrahydroimidazo[1,2-a]pyrido[3,4-e]pyrimidine-5(4H)-one], the negative-log EC50 (pEC50) on hClpP was > 6.00. The negative-log IC50 (pIC50) in the test with MV4; 11 cells is > 6.00.

Molecule `O=c1c2c(c3cccnc3n1Cc1ccc3c(c1)OCCO3)CCN(Cc1cccc(Cl)c1)C2` [Compound I-97, 3-(3-chlorobenzyl)-6-((2,3-dihydro[1,4]benzodioxin-6-yl)methyl)-2,3,4,6-tetrahydropyrido[3,4-c][1,8]naphthyridine-5(1H)-one] had a pEC50 on hClpP of 5.00 to 6.00. In the test on MV4; 11 cells, this molecule gave a pIC50 of 5.00 to 6.00.

Take `O=c1c2c(n3ccnc3n1Cc1ccc(C(F)(F)F)cc1)CCN(Cc1cccc(F)c1)C2` [Compound I-128, 7-(3-fluorobenzyl)-4-(4-trifluoromethylbenzyl)-6,7,8,9-tetrahydroimidazo[1,2-a]pyrido[3,4-e]pyrimidine-5(4H)-one]: the pEC50 at hClpP is > 6.00. Moreover, the pIC50 in the test with MV4; 11 cells is > 6.00.

As to `O=c1c2c(n3cncc3n1Cc1ccc(C(F)(F)F)cc1)CCN(Cc1ccccc1)C2` [Compound I-164, 7-benzyl-4-(4-trifluoromethylbenzyl)-6,7,8,9-tetrahydroimidazo[1,5-a]pyrido[3,4-e]pyrimidine-5(4H)-one], the pEC50 at hClpP was 5.00 to 6.00. The same molecule showed a negative logarithm of the IC50 (pIC50) with MV4; 11 cells of 5.00 to 6.00.

For `CCc1ccc(Cn2c(=O)c3c(n4ccnc24)CCN(Cc2cccc(Cl)c2)C3)cc1` [Compound I-139, 7-(3-chlorobenzyl)-4-(4-ethylbenzyl)-6,7,8,9-tetrahydroimidazo[1,2-a]pyrido[3,4-e]pyrimidine-5(4H)-one], the negative logarithm of the EC50 (pEC50) at hClpP was > 6.00. Moreover, the pIC50 with MV4; 11 cells was > 6.00.

In turn, `O=c1c2c(c3cccnc3n1Cc1ccccc1)CCN(Cc1ccccn1)C2` [Compound I-27, 6-benzyl-3-(pyridin-2-ylmethyl)-2,3,4,6-tetrahydropyrido[3,4-c][1,8]naphthyridine-5-(1H)-one] gave a negative logarithm of the EC50 (pEC50) at hClpP of 4.00 to 5.00. Further, in the test on MV4; 11 cells, the negative logarithm of the IC50 (pIC50) was 5.00 to 6.00.

With `O=c1c2c(c3cccnc3n1Cc1ccccc1)CCN(Cc1cccc(Cl)c1)C2` [Compound I-13, 6-benzyl-3-(3-chlorobenzyl)-2,3,4,6-tetrahydropyrido[3,4-c][1,8]naphthyridine-5-(1H)-one], the pEC50 at hClpP is > 6.00. Moreover, in the test on MV4; 11 cells, the negative logarithm of the IC50 (pIC50) was > 6.00.

Take `COc1ccccc1CN1CCc2c(c(=O)n(Cc3ccccc3)c3ncccc23)C1` [Compound I-11, 6-benzyl-3-(2-methoxybenzyl)-2,3,4,6-tetrahydropyrido[3,4-c][1,8]naphthyridine-5-(1H)-one]: the negative-log EC50 (pEC50) on hClpP is 5.00 to 6.00. The negative logarithm of the IC50 (pIC50) in the test with MV4; 11 cells is > 6.00.

Turning to `Cc1cccc(CN2CCc3c(c(=O)n(Cc4ccccc4)c4ncccc34)C2)c1` [Compound I-15, 6-benzyl-3-(3-methylbenzyl)-2,3,4,6-tetrahydropyrido[3,4-c][1,8]naphthyridine-5-(1H)-one], on hClpP, the pEC50 is > 6.00. For the same molecule, the pIC50 in the test with MV4; 11 cells was > 6.00.

`O=c1c2c(n3ccnc3n1Cc1ccc(F)cc1F)CCN(Cc1cccc(F)c1)C2` [Compound I-123, 7-(3-fluorobenzyl)-4-(2,4-difluorobenzyl)-6,7,8,9-tetrahydroimidazo[1,2-a]pyrido[3,4-e]pyrimidine-5(4H)-one]: the pEC50 on hClpP was > 6.00. Moreover, in the test on MV4; 11 cells, the pIC50 was > 6.00.

`Cc1ccccc1CN1CCc2c(c(=O)n(Cc3ccccc3)c3ncccc23)C1` [Compound I-9, 6-benzyl-3-(2-methylbenzyl)-2,3,4,6-tetrahydropyrido[3,4-c][1,8]naphthyridine-5-(1H)-one]: the pEC50 on hClpP is 5.00 to 6.00. In addition, the pIC50 in the test with MV4; 11 cells is > 6.00.

At hClpP, `Cn1ccnc1CN1CCc2c(c(=O)n(Cc3ccccc3)c3ncccc23)C1` [Compound I-31, 6-benzyl-3-((1-methyl-1H-imidazol-2-yl)methyl)-2,3,4,6-tetrahydropyrido[3,4-c][1,8]naphthyridine-5-(1H)-one] showed a negative-log EC50 (pEC50) of 4.00 to 5.00. For the same molecule, in the test with MV4; 11 cells, the pIC50 is 5.00 to 6.00.

The molecule `O=c1c2c(c3cccnc3n1CC1CCCCC1)CCN(Cc1ccccc1)C2` [Compound I-39, 3-benzyl-6-(cyclohexylmethyl)-2,3,4,6-tetrahydropyrido[3,4-c][1,8]naphthyridine-5-(1H)-one] gave a pEC50 on hClpP of 4.00 to 5.00. The molecule also gave a negative logarithm of the IC50 (pIC50) in the test with MV4; 11 cells of 6.04.

As to `O=c1c2c(n3ccnc3n1Cc1ccccc1)CCN(Cc1ccccc1)C2` [Compound I-107, 4,7-dibenzyl-6,7,8,9-tetrahydroimidazo[1,2-a]pyrido[3,4-e]pyrimidine-5(4H)-one], the pEC50 on hClpP is 5.00 to 6.00. The pIC50 in the test with MV4; 11 cells is 5.00 to 6.00.

Molecule `COc1cccc(CN2CCc3c(c(=O)n(Cc4ccccc4)c4ncccc34)C2)c1` [Compound I-17, 6-benzyl-3-(3-methoxybenzyl)-2,3,4,6-tetrahydropyrido[3,4-c][1,8]naphthyridine-5-(1H)-one] showed a pEC50 on hClpP of 5.00 to 6.00. Also, in the test with MV4; 11 cells, the negative logarithm of the IC50 (pIC50) was > 6.00.

`O=c1c2c(n3ccnc3n1Cc1ccc(F)cc1F)CCN(Cc1ccccc1)C2` [Compound I-122, 7-benzyl-4-(2,4-difluorobenzyl)-6,7,8,9-tetrahydroimidazo[1,2-a]pyrido[3,4-e]pyrimidine-5(4H)-one]: the pEC50 at hClpP is > 6.00. Moreover, the negative logarithm of the IC50 (pIC50) in the test on MV4; 11 cells is > 6.00.

The molecule `Cc1ncc(Cn2c(=O)c3c(c4cccnc42)CCN(Cc2ccccc2)C3)s1` [Compound I-69, 3-benzyl-6-((2-methylthiazol-5-yl)methyl)-2,3,4,6-tetrahydropyrido[3,4-c][1,8]naphthyridine-5-(1H)-one] gave a negative-log EC50 (pEC50) on hClpP of 4.00 to 5.00. The pIC50 with MV4; 11 cells was 5.00 to 6.00.

On to `COc1cccc(Cn2c(=O)c3c(c4cccnc42)CCN(Cc2ccccc2)C3)c1` [Compound I-51, 3-benzyl-6-(3-methoxybenzyl)-2,3,4,6-tetrahydropyrido[3,4-c][1,8]naphthyridine-5-(1H)-one], for which the negative logarithm of the EC50 (pEC50) on hClpP is > 6.00. For the same molecule, the negative-log IC50 (pIC50) in the test with MV4; 11 cells was > 6.00.

For `N#Cc1cccc(CN2CCc3c(c(=O)n(Cc4ccccc4)c4ncccc34)C2)c1` [Compound I-82, 6-benzyl-3-(3-cyanobenzyl)-2,3,4,6-tetrahydropyrido[3,4-c][1,8]naphthyridine-5-(1H)-one], at hClpP, the pEC50 was > 6.00. Further, the pIC50 with MV4; 11 cells is > 6.00.

Consider `O=c1c2c(c3cccnc3n1Cc1ccccc1Cl)CCN(Cc1ccccc1)C2` [Compound I-41, 3-benzyl-6-(2-chlorobenzyl)-2,3,4,6-tetrahydropyrido[3,4-c][1,8]naphthyridine-5-(1H)-one], for which the pEC50 on hClpP was 5.00 to 6.00. In addition, the negative logarithm of the IC50 (pIC50) in the test with MV4; 11 cells is > 6.00.

Turning to `O=c1c2c(c3cscc3n1Cc1ccc(C(F)(F)F)cc1)CCN(Cc1ccccc1)C2` [Compound I-102, 7-benzyl-4-(4-trifluoromethylbenzyl)-6,7,8,9-tetrahydrothieno[3,4-C][2,7]naphthyridine-5(4H)-one], the negative-log EC50 (pEC50) on hClpP is > 6.00. The negative-log IC50 (pIC50) with MV4; 11 cells is > 6.00.

Regarding `O=c1c2c(c3cccnc3n1Cc1ccccn1)CCN(Cc1ccccc1)C2` [Compound I-61, 3-benzyl-6-(pyridin-2-ylmethyl)-2,3,4,6-tetrahydropyrido[3,4-c][1,8]naphthyridine-5-(1H)-one], the negative logarithm of the EC50 (pEC50) on hClpP is 4.00 to 5.00. This molecule had a pIC50 with MV4; 11 cells of 5.00 to 6.00.

With `CCc1ccc(Cn2c(=O)c3c(c4cccnc42)CCN(Cc2cccc(C#N)c2)C3)cc1` [Compound I-94, 6-(4-ethylbenzyl)-3-(3-cyanobenzyl)-2,3,4,6-tetrahydropyrido[3,4-c][1,8]naphthyridine-5-(1H)-one], at hClpP, the negative-log EC50 (pEC50) was > 6.00. Further, in the test on MV4; 11 cells, the negative-log IC50 (pIC50) is > 6.00.

In turn, `O=c1c2c(c3cccnc3n1Cc1ccccc1)CCN(CC1CCCC1)C2` [Compound I-3, 6-benzyl-3-(cyclopentylmethyl)-2,3,4,6-tetrahydropyrido[3,4-c][1,8]naphthyridine-5-(1H)-one] had a pEC50 on hClpP of 4.00 to 5.00. The pIC50 in the test with MV4; 11 cells was 5.00 to 6.00.

As for `N#Cc1cccc(CN2CCc3c(c(=O)n(Cc4ccc(Br)cc4)c4ncccc34)C2)c1` [Compound I-86, 6-(4-bromobenzyl)-3-(3-cyanobenzyl)-2,3,4,6-tetrahydropyrido[3,4-c][1,8]naphthyridine-5-(1H)-one], the negative logarithm of the EC50 (pEC50) on hClpP was > 6.00. In addition, the negative-log IC50 (pIC50) in the test on MV4; 11 cells was > 6.00.

Regarding `COc1ccc(Cn2c(=O)c3c(n4ccnc24)CCN(Cc2cccc(Cl)c2)C3)cc1` [Compound I-144, 7-(3-chlorobenzyl)-4-(4-methoxybenzyl)-6,7,8,9-tetrahydroimidazo[1,2-a]pyrido[3,4-e]pyrimidine-5(4H)-one], the pEC50 at hClpP was > 6.00. Besides, in the test on MV4; 11 cells, the pIC50 was > 6.00.

As for `O=c1c2c(c3cccnc3n1Cc1ccncc1)CCN(Cc1ccccc1)C2` [Compound I-63, 3-benzyl-6-(pyridin-4-ylmethyl)-2,3,4,6-tetrahydropyrido[3,4-c][1,8]naphthyridine-5-(1H)-one], at hClpP, the pEC50 is 4.00 to 5.00. In the test with MV4; 11 cells, this molecule had a pIC50 of 5.00 to 6.00.

The record behind these values is patent US20240327408A1, “COMPOUNDS CONTAINING TETRAHYDRONAPHTHYRIDINONE OR TETRAHYDROPYRIDOPYRIMIDINONE SKELETON, PREPARATION METHOD THEREFOR AND PHARMACEUTICAL USE THEREOF” (CHINA PHARMACEUTICAL UNIVERSITY, priority 2021, published 2024).
